Where a name gives a salt, the structure may show the parent alone.
target: HPK1 (Homo sapiens (Human), UniProt Q92918); assay: HPK1 biochemical enzyme assay (microfluidic mobility shift assay); conditions: 1.5 nM HPK1, ATP 1 mM final, 30 min preincubation, 60 min at RT, Caliper EZ Reader; read-out: HPK1 1000UMATP caliper IC50
Outline: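 Mobility shift readout of HPK1 activity after a 60 min RT reaction with 1 mM ATP, 1 μM substrate and 5 mM MgCl2. Enzyme/substrate mix was first exposed to compounds for 30 min, using ten-point curves topping at 3 μM final.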

Chain of HPK1 (Q92918 whole entry): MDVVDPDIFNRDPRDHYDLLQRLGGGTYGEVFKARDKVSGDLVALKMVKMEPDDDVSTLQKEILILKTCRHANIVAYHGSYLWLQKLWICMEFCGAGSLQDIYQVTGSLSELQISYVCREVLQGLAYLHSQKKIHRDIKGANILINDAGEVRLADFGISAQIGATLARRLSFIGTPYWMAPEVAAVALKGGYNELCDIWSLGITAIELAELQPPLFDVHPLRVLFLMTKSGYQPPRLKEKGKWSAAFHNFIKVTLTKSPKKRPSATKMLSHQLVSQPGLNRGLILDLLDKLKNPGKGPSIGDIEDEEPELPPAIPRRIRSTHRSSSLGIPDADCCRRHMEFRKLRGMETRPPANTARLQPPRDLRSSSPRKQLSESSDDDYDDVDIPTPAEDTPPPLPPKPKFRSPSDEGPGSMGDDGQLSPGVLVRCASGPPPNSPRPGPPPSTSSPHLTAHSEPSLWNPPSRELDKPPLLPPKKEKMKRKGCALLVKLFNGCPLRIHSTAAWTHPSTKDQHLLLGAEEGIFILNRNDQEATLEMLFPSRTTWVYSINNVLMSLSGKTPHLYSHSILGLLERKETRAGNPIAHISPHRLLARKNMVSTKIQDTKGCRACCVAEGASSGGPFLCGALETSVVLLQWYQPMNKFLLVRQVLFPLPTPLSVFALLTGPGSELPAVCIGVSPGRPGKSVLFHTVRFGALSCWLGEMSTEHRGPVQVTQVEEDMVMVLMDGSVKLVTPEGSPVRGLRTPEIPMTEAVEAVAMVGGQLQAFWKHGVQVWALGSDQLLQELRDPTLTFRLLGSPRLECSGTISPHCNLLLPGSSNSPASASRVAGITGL

IC50, < 100 nM:
CN1CCN(c2cccc(Nc3cnc(-c4cnc5ccccn45)c4c3C(=O)NC4)n2)CC1 [I-451, 4-imidazo[1,2-a]pyridin-3-yl-7-[[6-(4-methylpiperazin-1-yl)-2-pyridyl]amino]-2,3-dihydropyrrolo [3,4-c]pyridin-1-one Bis formate]
O=C1NCc2c(-c3cnc4cnccn34)ccc(Nc3ccc(N4CC[C@H](F)[C@@H](O)C4)cn3)c21 [I-435, 7-((5-((3S,4S)-4-fluoro-3-hydroxypiperidin-1-yl)pyridin-2-yl)amino)-4-(imidazo[1,2-a]pyrazin-3-yl)isoindolin-1-one]
7-[[5-[(2R)-2- (1-hydroxy-1- methylethyl)morpholin- 4-yl]-2- pyridyl]amino]- 4-imidazo[1,2- a]pyrazin-3-yl- isoindolin-1-one [I-486]
Cn1nc(Nc2ccc(-c3ccnc4c3ccn4C)c3c2C(=O)NC3)cc1C1CCOCC1 [I-129, 4-(1-methylpyrrolo [2,3-b]pyridin-4-yl)-7-[(1-methyl-5-tetrahydropy-ran-4-yl-pyrazol-3-yl)amino]isoin-dolin-1-one]
Cc1cc2c(-c3ncc(Nc4ccc(N5CCN(C)CC5)cn4)c4c3CNC4=O)ccnc2[nH]1 [I-55, 7-[[5-(4-methylpiperazin-1-yl)-2-pyridyl]amino]-4-(2-methyl-1H-pyrrolo[2,3-b]pyridin-4-yl)-2,3-dihydropyrrolo [3,4-c]pyridin-1-one]
CC(C)N1CCN(c2ccc(Nc3cnc(-c4ccnc5c4ccn5C)c4c3C(=O)NC4)nc2)CC1 [I-319, 7-((5-(4-isopropylpiperazin-1-yl)pyridin-2-yl)amino)-4-(1-methyl-1H-pyrrolo[2,3-b]pyridin-4-yl)-2,3-dihydro-1H-pyrrolo[3,4-c]pyridin-1-one]
CN(C)Cc1nc(Nc2ccc(-c3cnc4cc(F)ccn34)c3c2C(=O)NC3)ccc1O[C@@H]1CCOC1 [I-533]
CN(C)C(C)(C)C1CCCN(c2ccc(Nc3ccc(-c4cnc5cc(F)ccn45)c4c3C(=O)NC4)nc2)C1 (stereo in doubt) [I-607, (S)-7-((5-(3-(2-(dimethylami-no)propan-2-yl)piperidin-1-yl)pyridin-2-yl)amino)-4-(7-fluoroimidazo [1,2-a]pyridin-3-yl)isoindolin-1-one]
O=C1NCc2c(-c3cnc4ccccn34)ncc(Nc3ccc(N4CCC(O)CC4)cn3)c21 [I-160, 7-[[5-(4-hydroxy-1-piperidyl)-2-pyridyl]amino]-4-imidazo[1,2-a]pyridin-3-yl-2,3-dihydropyrrolo [3,4-c]pyridin-1-one]
CN(CC1(O)CCCN(c2ccc(Nc3ccc(-c4cnc5cc(F)ccn45)c4c3C(=O)NC4)nc2)C1)C1CC1 (stereo not drawn) [I-491, 7-[[5-[3-[[cyclopropyl (methyl)amino]methyl]-3-hydroxy-1-piperidyl]-2-pyridyl]amino] 4-(7-fluoroimidazo [1,2-a]pyridin-3-yl)isoindolin-1-one]
CN(C)Cc1nc(Nc2cnc(-c3ccnc4c3ccn4C)c3c2C(=O)NC3)ccc1C1CCOCC1 [I-845, 7-[[6-[(dimethylamino)-methyl]-5-tetrahydropyran-4-yl-2-pyridyl]amino]-4-[l-methylpyrrolo [2,3-b]pyridin-4-yl)-2,3-dihydropyrrolo [3,4-c]pyridin-1-one Formic acid salt]
Cc1cnn2c(-c3ccc(Nc4ccc([C@@H]5CCOC5)c(CN(C)C)n4)c4c3CNC4=O)cnc2c1 [I-538, (S)-7-((6-((dimethylamino)-methyl)-5-(tetrahydrofuran-3-yl)pyridin-2-yl)amino)-4-(7-methylimidazo [1,2-b]pyridazin-3-yl)isoindolin-1-one]

— patent US11021481B2, “Substituted isoindolin-1-ones and 2,3-dihydro-1h-pyrrolo[3,4-c]pyridin-1-ones as HPK1 antagonists” (Nimbus Saturn, Inc., priority 2019, dated 2021)
